What was measured:
cardiac allografts [1] = assay: Heterotopic cardiac transplantation: graft survival; type: in vivo, mouse
Protocol: (§1) Completely allomismatched murine heterotopic cardiac transplantation was performed for the present study, as previously described in detail by us^13. Two groups (n=6 in each group) were used to study donor sources of CD73 (CD73^+/+ or CD73^−/− donors into B10A recipients) and another two groups (n=6 in each group) were used to study recipient sources (B10A donors into CD73^+/+ or CD73^−/− recipients). In experiments of adenosine receptor modulators, CBA/J mice were used as donors or recipients instead of B10A mice (n=4 to 6 in each group, as indicated).
Database management and statistical analysis were performed with the Statview version 5.0 software (SAS institute Inc., Cary, N.C.). All values are expressed as means±SEM. Kaplan-Meier analysis was performed to evaluate graft survival, and survival differences were compared by a log-rank test. Comparisons among groups were performed with an unpaired Student t test or one-way analysis of variance (ANOVA) where appropriate. Values of P<0.05 were considered statistically significant.
(§2) To further evaluate the CD73-mediated contribution of specific AR subtypes during allograft rejection or CAV, we performed heterotopic cardiac transplantation using AR modulators given intraperitoneally. First, we examined which AR is acutely responsible for increased vascular leakage in the murine heterotopic cardiac transplantation model. […] Based on the results of this graft permeability assay, we selected A2AR agonists (A2A, CGS21680; A2B, NECA) to establish their potential effects on cardiac allograft rejection or vasculopathy. […] The next set of experiments was designed to measure the role of the A2BAR in CAV.

cardiac allografts [2] = assay: Heterotopic cardiac transplantation: cardiac allograft vasculopathy, luminal occlusion of graft coronary arteries; type: in vivo, mouse; details: day 30 post-transplantation, both CD73+/+ and CD73−/− donors or recipients, vs wild-type non-treatment controls
Protocol: as §1, with “indicated). […]” for “indicated).”
as §2

IFN-γ and IL-2 mRNA = assay: Tracheal allograft T-helper 1 cytokine mRNA, real time PCR; type: in vivo, mouse; details: compared with vehicle; for expression of IFN-γ mRNA: wild type allograft
From the text: A heterotopic model, characterized by epithelial and subepithelial lymphocyte infiltration by one was also used (Lama, et al, Am J Pathol 169: 47-60, 2006). Donor tracheas were harvested as described above. The trachea was inserted in a subcutaneous pouch created after a 3-mm incision and blunt dissection in the back of the neck. The skin pocket was closed with a size 5.0 nylon suture.
Total RNA was extracted from frozen each mouse tracheas using RNeasy Mini Protocol for Tissues (Qiagen, Valencia, Calif.) and reverse transcribed using a High Capacity cDNA Archive Kit (ABI, Foster City, Calif.), in each case according to the manufacturer's instructions. One microgram of sample RNA was transcribed to cDNA. Real-time PCR was performed on an Applied Biosystems 7000 Real-Time PCR System (ABI) data collection system, and analyses were performed using the accompanying software.
PCR fluorogenic probes for all the target genes and the endogenous reference were purchased as TaqMan® Gene Expression Assays (ABI).
A2A receptor agonist 2-p-(2-carboxyethyl) phenethylamino-5′-N-ethylcarboxamidoadenosine (CGS-21680, 2 mg/kg/day), A2A receptor antagonist 5-Amino-7-(β-phenylethyl)-2-([…])pyrazolo(4,3-e)-1,2,4-triazolo1,5-c pyrimidine (SCH-58261, 2 mg/kg/day), A3 receptor agonist [2-chloro-N^6-(3-iodobenzyl)adenosine-5′-N-methyluronamide (Cl-IBMECA 1 mg/kg/day), A3 receptor antagonist 3-Ethyl 5-benzyl 2-methyl-6-phenyl-4-phenylethynyl-1,4-(±)-dihydropyridine-3,5-dicarboxylate (MRS 1191 2 mg/kg/day) or vehicle (0.1% DMSO in PBS) was administered in a sterile 0.1-ml volume by intraperitoneal injection every 12 hours after surgery. The doses of the adenosine-receptor agonists' were chosen according to previous studies (Erdmann, et al, Blood 105: 4707, 4714, 2005; Hasko, et al, Faseb J 14: 2065-2074, 2000; Satoh, et al, Pancreas 24: 75-82, 2002; Satoh, Gastroenterology 119: 829-836, 2000). The adenosine receptor agonists and antagonists were obtained from Sigma Chemicals (St. Louis, Mo.).

[3] = test system: T lymphocytes transmigrating across bEnd.3 endothelial cells; assay: Allomismatched transmigration coculture of endothelial cells and T lymphocytes; type: cell-based, mouse
From the text: (§3) T lymphocytes were purified from splenocytes of CD73^+/+ and CD73^−/− mice (H-2^b) using a Dynal mouse T cell negative isolation kit (Invitrogen). The BALB/c (H-2^d)-derived endothelial cell line bEnd.3 was obtained from American Type Culture Collection (Manassas, Va.).
(§4) To further elucidate the effects of CD73 on interactions between endothelial cells and T lymphocytes found in cardiac allografts, we performed an allomismatched coculture of endothelial cells (H-2^d) and lymphocytes (H-2^b; CD73^+/+ or CD73^−/−) with or without APCP in vitro. First, we evaluated the contribution of T lymphocytes to endothelial cells on the simple coculture experiments. […] Next, we evaluated the contribution of endothelial cells to T lymphocytes utilizing transmigration coculture experiments.

[4] = test system: endothelial cell line bEnd.3 with T lymphocytes; assay: Allomismatched simple coculture of endothelial cells and T lymphocytes; type: cell-based, mouse; details: 72-h coculture with CD73−/− T-lymphocytes, addition of APCP
From the text: as §3, §4

tracheal allografts = assay: Orthotopic trachea transplant model: graft luminal occlusion and CD3 positive T cell infiltration; type: in vivo, mouse
From the text: Two well-established tracheal transplant models were used to study the effect of CD73 on the pathogenesis of allograft rejection. The first model was the previously described double lumen airway (orthotopic) transplant model for studying chronic airway rejection (Harada, et al, Am J Physiol Lung Cell Mol Physiol 293: […]-130, 2007; Minamoto, et al, J Exp Med 202: 283-294, 2005). Briefly, after anesthesia, donor mice were exsanguinated, and whole trachea was harvested by transecting below the cricoid cartilage distal to the […] bifurcation under sterile conditions. Recipient mice were similarly anesthetized, and the whole trachea was exposed. Distal (the seventh intercartilaginous space) and proximal (immediately subjacent to the cricoid cartilage area) orifices positioned on the recipient trachea were anastomosed with both ends of the tracheal graft. This air permissive model mimics lymphocytic bronchitis and allows studies focusing on inflammation. All surgeries were performed using a Leitz-Wild surgical microscope (Urban Engineering, Burbank, Calif.) under ×16 magnifications. Grafts were harvested at the indicated time points and embedded en bloc in Tissue Freezing Medium (Triangle Biomedical Sciences, Durham, N.C.) in Disposable Base Molds (Richard-Allan Scientific, Kalamazoo, Mich.) in liquid nitrogen and stored at -80° C. until the time of analysis. For the orthotopic model histochemical staining was performed for elastin (Accustain; Sigma-Aldrich) to determine graft luminal occlusion on 5-μm-thick sections. Immunostaining was also performed using, serial adjacent sections from each group, with primary antibodies directed against a pan-T-cell marker (hamster anti-mouse CD3; BD Pharmingen, San Diego, Calif.). Morphometric measurements of cross-sectional areas were performed by blindly tracing both epithelial and subepithelial areas using a computer-assisted image analysis system (AxoCamHR; Carl Zeiss Microimaging, Thornwood, N.Y.). […]-130, 2007). Quantitative analysis of T cell infiltration was performed by manually counting the number of CD3-positive cells in epithelial and subepithelial layer under high-power magnified fields. […] The doses of the adenosine-receptor agonists' were chosen according to previous studies ([…], et al, Blood 105: 4707, 4714, 2005; Hasko, et al, Faseb J 14: 2065-2074, 2000; Satoh, et al, Pancreas 24: 75-82, 2002; Satoh, Gastroenterology 119: 829-836, 2000). The adenosine receptor agonists and antagonists were obtained from Sigma Chemicals (St. Louis, Mo.).

[5] = CD73−/− donors or recipients, compared with wild-type non-treatment controls
[6] = compared with non-treatment controls

CCNC(=O)[C@H]1O[C@@H](n2cnc3c(N)ncnc32)[C@H](O)[C@@H]1O [NECA]
graft survival (cardiac allografts [1]; [5]): significantly increased
graft survival compared with CGS21680-treated recipients (cardiac allografts [1]; NECA-treated vs CGS21680-treated recipients): significantly longer
graft survival (cardiac allografts [1]; [6]): significantly increased
severity of luminal occlusion (cardiac allografts [2]): significantly attenuated

Nc1nc2c(cnn2CCc2ccccc2)c2nc(-c3ccco3)nn12 [SCH-58261, 5-Amino-7-(β-phenylethyl)-2-([…])pyrazolo(4,3-e)-1,2,4-triazolo1,5-c pyrimidine]
expression of IFN-γ mRNA (IFN-γ and IL-2 mRNA): did not affect

Nc1ncnc2c1ncn2[C@@H]1O[C@H](COP(=O)(O)CP(=O)(O)O)[C@@H](O)[C@H]1O [APCP]
transmigration of T-lymphocytes ([3]; 24-h coculture of CD73−/− T-lymphocytes): significantly enhanced
IFN-γ mRNA upregulation in post-transmigrated T-lymphocytes ([3]; coculture of CD73−/− T-lymphocytes): no significant enhancement
endothelial cell TNF-α mRNA upregulation [4]: significantly enhanced
endothelial cell VCAM-1 mRNA upregulation [4]: significantly enhanced

CCNC(=O)[C@H]1O[C@@H](n2cnc3c(N)nc(NCCc4ccc(CCC(=O)O)cc4)nc32)[C@H](O)[C@@H]1O [CGS-21680, 2-p-(2-carboxyethyl) phenethylamino-5′-N-ethylcarboxamidoadenosine]
graft survival (cardiac allografts [1]; [5]): no significant increase
graft survival (cardiac allografts [1]; [6]): significantly increased
expression of IFN-γ mRNA (IFN-γ and IL-2 mRNA): down-regulated
expression of IL-2 mRNA (IFN-γ and IL-2 mRNA; wild type allografts): down-regulated
CD3 positive cell infiltrations (tracheal allografts; CD73−/− allografts, mean±SEM): 79±28
luminal obliteration (tracheal allografts; CD73−/− allografts, mean±SEM): 36±3%
CD3 positive cell infiltrations (tracheal allografts; wild type allografts, compared with vehicle): less
graft luminal obliteration (tracheal allografts; wild type allografts, compared with vehicle, 1 week after transplantation, i.p. every 12 hours): significantly reduced

CNC(=O)[C@H]1O[C@@H](n2cnc3c(NCc4cccc(I)c4)nc(Cl)nc32)[C@H](O)[C@@H]1O [Cl-IBMECA, 2-chloro-N^6-(3-iodobenzyl)adenosine-5′-N-methyluronamide]
expression of IFN-γ mRNA (IFN-γ and IL-2 mRNA): did not affect

CCOC(=O)C1=C(C)NC(c2ccccc2)=C(C(=O)OCc2ccccc2)C1C#Cc1ccccc1 (racemic) [MRS 1191, 3-Ethyl 5-benzyl 2-methyl-6-phenyl-4-phenylethynyl-1,4-(±)-dihydropyridine-3,5-dicarboxylate]
expression of IFN-γ mRNA (IFN-γ and IL-2 mRNA): did not affect

— patent publication US10874719B2, “Nucleotide phosphate dissipation as a treatment for vascular disorders” (THE REGENTS OF THE UNIVERSITY OF MICHIGAN, priority 2007, dated 2020)
